From patent US5965539A, “Inhibitors of prenyl transferases” (Univeristy of Pittsburgh, priority 1996, dated 1999)
Like-named read-outs stand apart in the source and are kept apart here.

Assays:
FTase [1] = target: T1, FTase (Homo sapiens, UniProt P49356); assay: FTase activity assay: transfer of [3H]farnesyl from FPP to recombinant H-Ras-CVLS, Daudi 60,000xg supernatant; type: biochemical; settings: for GG/F: ratio GGTase I IC50 / FTase IC50; for IC50: read-out: FTase IC50; for Selectivity: FTase over GGTase I
T1 construct: FTase and GGTase I activities from 60,000×g supernatants of human Burkitt lymphoma (Daudi) cells; endogenous in cells; host or cells: human Burkitt lymphoma (Daudi) cells, 60,000xg supernatant (partially purified)
T1 sequence (P49356 whole entry): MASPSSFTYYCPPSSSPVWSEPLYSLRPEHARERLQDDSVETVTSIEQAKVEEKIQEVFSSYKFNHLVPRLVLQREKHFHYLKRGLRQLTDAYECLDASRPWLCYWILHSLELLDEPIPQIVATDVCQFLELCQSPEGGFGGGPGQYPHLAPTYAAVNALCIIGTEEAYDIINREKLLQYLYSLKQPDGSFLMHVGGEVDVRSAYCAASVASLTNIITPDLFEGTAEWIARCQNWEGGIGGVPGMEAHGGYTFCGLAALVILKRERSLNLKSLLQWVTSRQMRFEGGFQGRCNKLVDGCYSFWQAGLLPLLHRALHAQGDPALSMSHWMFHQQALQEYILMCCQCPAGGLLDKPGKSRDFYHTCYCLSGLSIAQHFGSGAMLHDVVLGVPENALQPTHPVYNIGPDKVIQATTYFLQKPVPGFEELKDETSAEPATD
Experimental: FTase and GGTase I activities from 60,000×g supernatants of human Burkitt lymphoma (Daudi) cells (ATCC, Rockville, Md., USA) were assayed as described previously for FTase (41). Briefly, 100 μg of the supernatant was incubated in 50 mM Tris, pH 7.5, 50 μM ZnCl2, 20 mM KCl and 1 mM dithiothreitol (DTT).
Human Burkitt lymphoma (Daudi) cells (ATCC, Rockville, Md.) were grown in suspension in RPMI 1640 medium containing 10% fetal bovine serum (FBS) and 1% Pen-Strep in a humidified 10% CO2 incubator at 37° C. The cells were harvested and sonicated in 50 mM Tris, pH 7.5, 1 mM EDTA, 1 mM EGTA, 25 μg/ml leupeptin, 1 mM phenylmethylsulfonyl fluoride. Homogenates were then spun at 12,000×g and the resulting supernatant further spun at 60,000×g. The supernatant was assayed for both FTase and GGTase I. Briefly, 100 μg of the supernatants was incubated in 50 mM Tris, pH 7.5, 50 μM ZnCl2, 20 mM KCl, 3 mM MgCl2 and 1 mM DTT. […] FPP (625 nM; 16.3 Ci/mmol). For GGTase assays, the reaction was also incubated for 30 minutes at 37° C. but with recombinant H-Ras-CVLL (5 μM) and [^3 H] GGPP (525 nM; 19.0 Ci/mmol). The reaction was stopped and passed through glass fiber filters to separate free and incorporated label. For inhibition studies, the peptidomimetics were premixed with FTase or GGTase I prior to adding the remainder of the reaction mixture. […] Recombinant H-Ras-CVLL was prepared from bacteria (32).
FTase and GGTase I activities from 60,000×g supernatants of human Burkitt lymphoma (Daudi) cells (ATCC, Rockville, Md.) were assayed exactly as described previously for FTase (41).

GGTase I = target: T2, GGTase I (Homo sapiens, UniProt P53609); assay: GGTase I activity assay: transfer of [3H]geranylgeranyl to recombinant H-Ras-CVLL, Daudi 60,000xg supernatant; type: biochemical
T2 construct: FTase and GGTase I activities from 60,000×g supernatants of human Burkitt lymphoma (Daudi) cells; endogenous in cells; host or cells: human Burkitt lymphoma (Daudi) cells, 60,000xg supernatant (partially purified)
T2 sequence (P53609 whole entry): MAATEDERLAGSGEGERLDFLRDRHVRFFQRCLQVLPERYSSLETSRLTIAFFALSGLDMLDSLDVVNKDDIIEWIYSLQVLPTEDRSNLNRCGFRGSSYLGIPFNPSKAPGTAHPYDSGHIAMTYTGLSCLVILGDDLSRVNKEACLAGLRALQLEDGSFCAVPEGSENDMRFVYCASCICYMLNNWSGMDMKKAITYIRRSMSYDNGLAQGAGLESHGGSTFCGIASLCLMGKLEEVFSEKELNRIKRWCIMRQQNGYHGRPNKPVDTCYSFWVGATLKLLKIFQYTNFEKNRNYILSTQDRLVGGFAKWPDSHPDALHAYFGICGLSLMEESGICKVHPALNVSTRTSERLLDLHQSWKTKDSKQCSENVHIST
Experimental: FTase and GGTase I activities from 60,000×g supernatants of human Burkitt lymphoma (Daudi) cells (ATCC, Rockville, Md., USA) were assayed as described previously for FTase (41). Briefly, 100 μg of the supernatant was incubated in 50 mM Tris, pH 7.5, 50 μM ZnCl2, 20 mM KCl and 1 mM dithiothreitol (DTT). The reaction was incubated at […] for 30 min with recombinant Ha-Ras-CVLS (11 μM) and [^3 H]FPP (625 nM; 16.3 Ci/mmol) for FTase, and recombinant Ha-Ras-CVLL (5 μM) and [^3 H]geranylgeranylpyrophosphate (525 nM; 19.0 Ci/mmol) for GGTase I. The peptidomimetics were mixed with FTase and GGTase before adding to the reaction mixture.
Human Burkitt lymphoma (Daudi) cells (ATCC, Rockville, Md.) were grown in suspension in RPMI 1640 medium containing 10% fetal bovine serum (FBS) and 1% Pen-Strep in a humidified 10% CO2 incubator at 37° C. The cells were harvested and sonicated in 50 mM Tris, pH 7.5, 1 mM EDTA, 1 mM EGTA, 25 μg/ml leupeptin, 1 mM phenylmethylsulfonyl fluoride. Homogenates were then spun at 12,000×g and the resulting supernatant further spun at 60,000×g. The supernatant was assayed for both FTase and GGTase I. Briefly, 100 μg of the supernatants was incubated in 50 mM Tris, pH 7.5, 50 μM ZnCl2, 20 mM KCl, 3 mM MgCl2 and 1 mM DTT. For FTase assays, the reaction was incubated at 37° C. for 30 minutes with recombinant H-Ras-CVLS (11 μM) and [^3 H] FPP (625 nM; 16.3 Ci/mmol). For GGTase assays, the reaction was also incubated for 30 minutes at 37° C. but with recombinant H-Ras-CVLL (5 μM) and [^3 H] GGPP (525 nM; 19.0 Ci/mmol). The reaction was stopped and passed through glass fiber filters to separate free and incorporated label. For inhibition studies, the peptidomimetics were premixed with FTase or GGTase I prior to adding the remainder of the reaction mixture. Recombinant H-Ras-CVLS was prepared as described previously (26) from bacteria (31). Recombinant H-Ras-CVLL was prepared from bacteria (32).
FTase and GGTase I activities from 60,000×g supernatants of human Burkitt lymphoma (Daudi) cells (ATCC, Rockville, Md.) were assayed exactly as described previously for FTase (41). Inhibition studies were performed by determining the ability of Ras CAAX peptidomimetics to inhibit the transfer of [^3 H]-farnesyl and [^3 H]-geranylgeranyl from [^3 H]FPP and [^3 H]GGPP to H-ras-CVLS and H-Ras-CVLL, respectively (41).

H-Ras processing = assay: Ras processing assay in H-RasF cells (NIH 3T3 transformed with oncogenic H-Ras-CVLS), immunoblot; type: cell-based; settings: whole cells; read-out: H-Ras processing IC50
Experimental: H-RasF cells (45) were seeded on day 0 in 100 mm Dishes (costar) in Dulbecco's modified Eagles medium (GIBCO) and allowed to grow to 40-60% confluency. […] On day 3, cells were washed one time with ice cold PBS and were collected and lysed by incubation for 30-60 min on ice in lysis buffer (41). Lysates were cleared (14,000 rpm, 4° C., 15 min) and supernatants collected. Equal amounts of lysate were separated on a 12.5% SDS-PAGE, transfered to nitrocellulose, and a western blot performed using a anti-Ras antibody (Y13-238, ATCC) or anti-Rap1A antibody (Santa Cruz Biotechnology, Santa Cruz, Calif.). Antibody reactions were visualized using peroxidase-conjugated goat anti-rat IgG for Y13-238 and peroxidase-conjugated goat anti-rabbit IgG for Rap1A and an enhanced chemiluminescence detection system (ECL; Amersham Corp.)
H-Ras cells (45) and K-Ras4B Cells (32) were kind gifts from Dr. Channing Der and Dr. Adrienne Cox (University of North Carolina, Chapel Hill). Means of obtaining these cell lines will be easily recognized by the skilled practitioner. Cells were seeded on day 0 in 100 mm dishes in Dulbecco's modified Eagles medium supplemented with 10% calf serum and 1% penicillin-streptomycin. […] On day 3, cells were washed and lysed in lysis buffer containing 50 mM HEPES, pH 7.5, 10 mM NaCl, 1% TX-100, 10% glycerol, 5 mM MgCl2, 1 mM EGTA, 25 μg/ml leupeptin, 2 mM PMSF, 2 mM Na3 VO4, 1 mg/ml soybean trypsin inhibitor, 10 μg/ml aprotinin, 6.4 mg/ml Sigma-104® phosphatase substrate. Lysates were cleared (14,000 rpm, 4° C., 15 min) and equal amounts of protein were separated on a 12.5% SDS-PAGE, transferred to nitrocellulose, and immunoblotted using an anti-Ras antibody (Y13-259, ATCC) or an anti-RapIA antibody (SC-65, Santa Cruz Biotechnology, Santa Cruz, Calif.). Antibody reactions were visualized using either peroxidase-conjugated goat anti-rat 1 gG (for Y13-259), or peroxidase-conjugated goat anti-rabbit 1 gG (for Rap1A) and an enhanced chemiluminescence detection (ECL, Amersham Corp.), as described previously (41).

Ras processing = Ras processing assay in EJ3 / Ras transformed 3T3 cells (FIG. 16A); type: cell-based
Experimental: EJ3 cells were treated with peptidomimetics or vehicle for 20-24 h. Cells were lysed in lysis buffer (10 mM Na2 HPO4, pH 7.25, 150 mM NaCl, 0.1% sodium dodecyl sulfate, 1% Triton X-100, 12 mM sodium deoxycholate, 1 mM NaF, 0.2% NaN3, 2 mM PMSF, 25 μg/ml leupeptin) and the lysates were cleared by spinning at 13,000 rpm for 15 minutes. Ras protein was immunoprecipitated overnight at 4° C. with 50 μg of anti-Ras antibody (Y13-259; hybridoma from ATCC, Rockville, Md.) along with 30 μl Protein A-agarose goat anti-rat IgG complex (oncogene Science, Uniondale, N.Y.). Immunoprecipitates were washed 4 times with lysis buffer and the bound proteins were released by heating for 5 minutes in 40 μl SDS-PAGE sample buffer and subsequently electrophoresed on a 12.5% SDS-PAGE.

FTase [2] = target: T1, FTase; assay: Peptidomimetics farnesylation assay (silica gel TLC); type: biochemical; settings: Table 4; substrate for farnesylation, TLC
Experimental: The ability of human Burkitt lymphoma (Daudi) FTase to farnesylate peptides and peptidomimetics was determined as described previously (34, 35). Briefly, 25 μl of reaction mixture containing 50 μg of 60,000×g supernatants and 20 μM peptidomimetic in 50 mM Tris, pH 7.5, 50 μM ZnCl2, 20 mM KCl, 3 mM MgCl2, 1 mM DTT and 0.2% octylβ-D-glucoside was incubated for 30 minutes at 37° C., then spotted onto silica gel G TLC sheets (20×20 cm, Brinkmann Instruments), and developed with n-propanol/5 N ammonium hydroxide/water (6:1:1). The dried sheets were sprayed with En^3 Hance (DuPont NEN) and exposed to x-ray film for detection of [^3 H] farnesylated products.

Rap1A processing = Rap1A processing assay in EJ3 / Ras transformed 3T3 cells (FIG. 16B); type: cell-based
Experimental: For Rap1A processing assays, 50 μg of cell lysates were electrophoresed as described above for Ras processing and transferred to nitrocellulose. These membranes were then blocked with 5% milk in Tris-buffered saline, pH 8.0, containing 0.5% Tween-20 and probed with anti-Rap1A (1 μg/ml in 5% milk/TBS-T; Santa Cruz Biotechnology, Santa Cruz, Calif.). Antibody reactions were visualized using peroxidase-conjugated goat anti-rabbit IgG (Oncogene) and ECL chemiluminescence as described above.

[3] = Table 1, read-out: GGTase I IC50
[4] = Table 4, read-out: GGTase-I IC50

| selectivity for FTase over GGTase I (FTase [1]) [fold] | GG/F (FTase [1]; Table 1) | IC50 (FTase [1]; Table 1) [nM] | Selectivity (FTase [1]; Table 4) | IC50 (FTase [1]; Table 4) [nM] | IC50 (FTase [1]) [nM] | IC50 (GGTase I; [3]) [nM] | IC50 (GGTase I; [4]) [nM] | IC50 (H-Ras processing) [nM] | Substrate (FTase [2]) | Structure (SMILES) | inhibition of Ras processing (Ras processing; 200 μM) | inhibition of Ras processing (Ras processing; FIG. 16A) | inhibition of Rap1A processing (Rap1A processing) |
| --- | --- | --- | --- | --- | --- | --- | --- | --- | --- | --- | --- | --- | --- |
| 15 | 15 | 272 | 15 | 300 | 300 | 3970 | 4400 | 100000 | – | CSCC[C@H](NC(=O)c1ccc(NC[C@@H](N)CS)cc1)C(=O)O [FTI-249, 4-N-[2(R)-Amino-3-mercaptopropyl]aminobenzoyl methionine] | did not inhibit Ras processing | did not inhibit Ras processing | – |
| – | 19 | 1000 | – | – | – | 19000 | – | – | – | COC(=O)[C@H](CCSC)NC(=O)c1ccc(NC[C@@H](N)CS)cc1 [FTI-254, 4-N-[2(R)-Amino-3-mercaptopropyl]aminobenzoyl methionine methyl ester] | inhibited FTase | – | – |
| – | – | – | 141 | 710 | – | – | > 100000 | – | no | Cc1cccc(-c2ccc(NC[C@@H](N)CS)cc2)c1 [FTI-263, 4-N-[2(R)-Amino-3-mercaptopropyl]amino-3'-methylbiphenyl] | – | – | did not inhibit Rap1A processing |
| – | – | – | – | – | – | – | > 100000 | – | no | N[C@@H](CS)CNc1ccc(-c2ccc(C(=O)O)cc2)cc1 [FTI-271, 4-N-[2(R)-Amino-3-mercaptopropyl]amino-4'-carboxybiphenyl] | – | – | did not inhibit Rap1A processing |
| – | – | – | – | – | – | – | – | – | – | CC[C@H](C)C(=O)O[C@H]1C[C@@H](C)C=C2C=C[C@H](C)[C@H](CC[C@@H]3C[C@@H](O)CC(=O)O3)[C@H]21 [lovastatin, reference compound] | – | inhibited Ras processing | inhibited the processing of Rap1A |
